Reference: PMC8347595, “N-Skatyltryptamines—Dual 5-HT6R/D2R Ligands with Antipsychotic and Procognitive Potential” (Molecules, 2021)
Like-named read-outs stand apart in the source and are kept apart here.

Key:
Human Serotonin 5-HT6R [1] = molecular target: T1, Human Serotonin 5-HT6R (Homo sapiens, UniProt P50406); assay: 5-HT6R functional assay, antagonistic mode (cAMP induced by 5-CT, 1321N1 cells); type: cell-based; details: antagonistic mode, 5-CT 1000 nM; read-out: 5-HT6 Kb
T1 construct: host or cells: 1321N1 (frozen recombinant cells)
T1 sequence (P50406 whole entry): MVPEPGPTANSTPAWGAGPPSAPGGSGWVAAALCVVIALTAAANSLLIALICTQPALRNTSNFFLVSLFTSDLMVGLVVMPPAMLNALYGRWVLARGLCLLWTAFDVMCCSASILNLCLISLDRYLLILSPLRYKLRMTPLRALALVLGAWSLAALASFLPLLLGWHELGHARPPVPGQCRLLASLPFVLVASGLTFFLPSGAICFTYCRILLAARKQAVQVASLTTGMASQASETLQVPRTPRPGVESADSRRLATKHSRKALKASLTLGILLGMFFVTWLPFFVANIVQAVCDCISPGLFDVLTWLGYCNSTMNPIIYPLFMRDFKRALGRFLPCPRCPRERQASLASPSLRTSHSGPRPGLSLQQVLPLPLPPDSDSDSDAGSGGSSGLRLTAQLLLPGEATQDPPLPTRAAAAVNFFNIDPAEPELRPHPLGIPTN
Method: (§1) The properties of compounds to inhibit cAMP production induced by a 5-HT6R agonist 5-CT (1000 nM) was evaluated. Compounds were tested in triplicate at eight concentrations (10^−11–10^−4 M). The level of cAMP was measured using frozen recombinant 1321N1 cells expressing the Human Serotonin 5-HT6R (PerkinElmer). Total cAMP was measured using the LANCE cAMP Detection Kit (PerkinElmer), according to the manufacturer’s instructions. For quantification of cAMP levels, 2000 cells/well ([…]) were incubated with a mixture of compounds ([…]) for 30 min at room temperature in a 384-well white opaque microtiter plate. After incubation, the reaction was stopped and cells were lysed by the addition of […] of working solution ([…] ULight-anti-cAMP) for 1 h at room temperature. Time-resolved fluorescence resonance energy transfer (TR-FRET) was detected by an Infinite M1000 Pro (Tecan) using instrument settings from the LANCE cAMP Detection Kit manual. […] The agonistic properties of compounds were determined with an analogous procedure, but without stimulation with 5-CT [10, 36].

5-HT6R = 5-HT6R (Homo sapiens, UniProt P50406); assay: Radioligand binding assay, [3H]-LSD displacement
5-HT6R, sequence (P50406 whole entry): as above

5-HT7R = 5-HT7R (Homo sapiens, UniProt P34969); assay: Radioligand binding assay, [3H]-5-CT displacement
5-HT7R, sequence (P34969 1-432): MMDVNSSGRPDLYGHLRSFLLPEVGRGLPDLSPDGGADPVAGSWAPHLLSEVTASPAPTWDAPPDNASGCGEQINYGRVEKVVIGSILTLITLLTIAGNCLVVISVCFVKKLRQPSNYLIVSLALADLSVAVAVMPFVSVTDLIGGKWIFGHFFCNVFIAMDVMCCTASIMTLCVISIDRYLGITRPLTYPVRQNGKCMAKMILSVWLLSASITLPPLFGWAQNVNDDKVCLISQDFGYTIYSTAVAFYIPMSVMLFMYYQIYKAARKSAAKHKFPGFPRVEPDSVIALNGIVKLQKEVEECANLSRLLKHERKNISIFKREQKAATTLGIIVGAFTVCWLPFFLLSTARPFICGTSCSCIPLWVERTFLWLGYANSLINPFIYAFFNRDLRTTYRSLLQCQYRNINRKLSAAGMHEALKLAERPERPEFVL

5-HT2AR [2] = molecular target: T2, 5-HT2AR (Homo sapiens, UniProt P28223); assay: Radioligand binding assay, [3H]-ketanserin displacement; parameters: host or cells: CHO-K1; membrane preparation
T2 sequence (P28223 whole entry): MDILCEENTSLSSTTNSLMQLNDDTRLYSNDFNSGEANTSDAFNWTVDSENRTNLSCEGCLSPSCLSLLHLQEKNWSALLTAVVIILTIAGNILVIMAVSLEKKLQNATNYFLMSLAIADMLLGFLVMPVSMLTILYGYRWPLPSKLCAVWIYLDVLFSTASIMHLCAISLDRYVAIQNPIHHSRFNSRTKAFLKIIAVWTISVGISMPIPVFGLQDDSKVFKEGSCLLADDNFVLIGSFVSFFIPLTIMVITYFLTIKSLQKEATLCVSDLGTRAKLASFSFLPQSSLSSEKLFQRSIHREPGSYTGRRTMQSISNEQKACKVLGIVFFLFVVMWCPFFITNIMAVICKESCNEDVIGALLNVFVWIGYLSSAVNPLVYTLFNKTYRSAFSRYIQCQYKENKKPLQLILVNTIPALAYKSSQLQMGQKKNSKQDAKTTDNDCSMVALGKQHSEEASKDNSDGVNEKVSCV

D2R [3] = molecular target: T3, D2R (Homo sapiens, UniProt P14416); assay: Radioligand binding assay, [3H]-raclopride displacement
T3 sequence (P14416 whole entry): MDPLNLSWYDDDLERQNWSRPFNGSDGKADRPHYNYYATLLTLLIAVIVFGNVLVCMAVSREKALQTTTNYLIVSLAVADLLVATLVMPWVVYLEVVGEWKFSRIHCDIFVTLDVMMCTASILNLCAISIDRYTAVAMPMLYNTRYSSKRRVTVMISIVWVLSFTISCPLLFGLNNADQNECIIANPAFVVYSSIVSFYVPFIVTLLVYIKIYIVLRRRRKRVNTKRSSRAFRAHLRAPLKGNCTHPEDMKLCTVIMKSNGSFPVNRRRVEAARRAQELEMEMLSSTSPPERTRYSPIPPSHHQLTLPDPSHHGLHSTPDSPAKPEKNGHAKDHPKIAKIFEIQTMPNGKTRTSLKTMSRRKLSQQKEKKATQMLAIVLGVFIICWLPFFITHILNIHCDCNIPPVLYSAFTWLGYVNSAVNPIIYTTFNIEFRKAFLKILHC

5-HT2AR [4] = molecular target: T2, 5-HT2AR; assay: 5-HT2AR function (no method given)
5-HT1AR = molecular target: T4, 5-HT1AR (Homo sapiens, UniProt P08908); assay: Radioligand binding assay, [3H]-8-OH-DPAT displacement; details: pKi 5-HT1A, Table 1
T4 sequence (P08908 1-422): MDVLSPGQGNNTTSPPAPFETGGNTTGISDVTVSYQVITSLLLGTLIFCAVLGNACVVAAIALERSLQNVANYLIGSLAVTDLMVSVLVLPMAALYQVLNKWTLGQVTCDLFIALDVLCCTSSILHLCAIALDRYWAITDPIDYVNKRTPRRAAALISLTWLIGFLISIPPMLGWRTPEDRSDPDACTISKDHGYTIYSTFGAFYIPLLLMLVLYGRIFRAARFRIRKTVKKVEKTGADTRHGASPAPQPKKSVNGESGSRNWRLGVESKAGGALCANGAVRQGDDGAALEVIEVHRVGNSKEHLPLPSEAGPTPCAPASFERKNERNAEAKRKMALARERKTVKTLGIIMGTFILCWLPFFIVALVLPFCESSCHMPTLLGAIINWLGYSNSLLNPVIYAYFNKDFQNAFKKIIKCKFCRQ

CYP3A4 = molecular target: T5, CYP3A4 (Homo sapiens, UniProt P08684); assay: CYP3A4 P450-Glo luminescent assay; type: in vitro ADME; details: compared to ketoconazole; 0.01 to 25 µM
T5 construct: purchased Promega (Madison, WI, USA)
T5 sequence (P08684 whole entry): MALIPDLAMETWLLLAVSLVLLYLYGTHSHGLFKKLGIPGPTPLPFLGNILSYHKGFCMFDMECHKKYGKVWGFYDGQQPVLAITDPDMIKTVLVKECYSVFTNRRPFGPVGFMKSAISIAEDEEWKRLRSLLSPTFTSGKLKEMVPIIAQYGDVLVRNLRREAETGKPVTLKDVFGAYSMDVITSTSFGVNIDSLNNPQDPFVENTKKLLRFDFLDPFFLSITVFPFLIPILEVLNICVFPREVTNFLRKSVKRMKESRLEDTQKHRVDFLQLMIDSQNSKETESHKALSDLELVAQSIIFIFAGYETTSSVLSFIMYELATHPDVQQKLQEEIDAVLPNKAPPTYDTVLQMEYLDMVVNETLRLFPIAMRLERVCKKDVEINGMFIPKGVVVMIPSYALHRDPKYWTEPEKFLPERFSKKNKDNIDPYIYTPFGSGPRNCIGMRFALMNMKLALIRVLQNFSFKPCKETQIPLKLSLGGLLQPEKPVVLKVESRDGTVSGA
Method: The experiments were provided using commercially available luminescent CYP3A4 P450-Glo™ and CYP2D6 P450-Glo™ tests purchased from Promega (Madison, WI, USA). The enzymatic reactions were conducted in polystyrene, flat-bottom Nunc™ MicroWell™ 96-well microplates (Thermo Scientific, Waltham, MA, USA). The assays were carried out according to the procedures provided by the manufacturer, as described previously. Compounds were tested in triplicate at the final concentrations in a range from 0.01 to 25 µM for both isoforms of CYP450. The references of CYP3A4 and CYP2D6 inhibitors (ketoconazole and quinidine, respectively) were tested in a range from 0.001 to 10 µM. Tested compounds were incubated in 100 mM Tris-HCl buffer separately with CYP3A4 and CYP2D6 membranes and the NADPH Regeneration System for 30 min at room temperature in triplicate. The bioluminescent signal was measured after the addition of the Luciferin Detection Reagent by using a microplate reader EnSpire PerkinElmer (Waltham, MA, USA). Both reagents (NADPH Regeneration System and Luciferin Detection Reagent) were purchased from Promega (Madison, WI, USA).

HepG2 cell line = assay: Hepatotoxicity assay, HepG2 viability; type: cell-based; details: 1 μM, 72 h
Method: To estimate the hepatotoxicity of compounds, the hepatoma HepG2 (ATCC® HB-8065TM) cell line was used according to previously described protocols. The CellTiter 96® AQueous Non-Radioactive Cell Proliferation Assay was obtained from Promega (Madison, WI, USA). The compounds were tested in quadruplicate at four concentrations (1–100 µM) for 72 h.

D2R [5] = molecular target: T3, D2R; assay: D2R functional assay, antagonist mode (cAMP, HEK293 cells); type: cell-based; parameters: expressed in transfected cells
Method: The supernatant was aspirated, and the cell pellet was resuspended in stimulation buffer (1 × HBSS, 5 mM HEPES, 0.5 mM IBMX, 0.1% BSA).
The functional properties of compounds were evaluated using the LANCE Ultra cAMP Detection Kit (PerkinElmer). D2 receptors in HEK293 cells are coupled to Gi subtype and decreased cAMP production. […] Each compound was tested in triplicate at eight concentrations (10^−11–10^−4 M).
For quantification of cAMP levels, cells (5 µL) were incubated with 5 µL mixture of compounds (tested ligand and forskolin with 100 nM quinpirole for antagonist binding mode) for 30 min at room temperature in 384-well white opaque microtiter plate (PerkinElmer). After incubation, the reaction was stopped and cells were lysed by the addition of 10 µL working solution (5 µL Eu-cAMP and 5 µL ULight-anti-cAMP). The assay plate was incubated for 1 h at room temperature. Time-resolved fluorescence resonance energy transfer (TR-FRET) signal was detected by an Infinite M1000 Pro (Tecan) using instrument settings from the LANCE Ultra cAMP Detection Kit manual.

[6] = Metabolic stability, incubation with mouse liver microsomes; type: in vitro ADME; details: MLMs, 50 µM, 2 h
Method: The murine liver microsomes (MLMs) were purchased from Sigma-Aldrich (St. Louis, MO, USA). To determine metabolic pathways, the tested compounds (50 µM) were incubated with 100 mM Tris-HCl buffer at 37 °C with MLMs (1 mg/mL) and NADPH Regeneration System for 2 h. Reactions were quenched with cold, pure methanol and mixtures were centrifuged 14,000 g for 15 min. The supernatants were analyzed using LCMS. The additional MS ion fragmentation of the product and the substrate were performed to determine the most probable structure of the metabolite.

Human Serotonin 5-HT6R [7] = molecular target: T1, Human Serotonin 5-HT6R; assay: 5-HT6R functional assay, agonistic mode (cAMP, 1321N1 cells); type: cell-based; details: agonistic mode; read-out: 5-HT6 EC50
Method: as §1

[8] = PAMPA
[9] = Metabolic stability, incubation with mouse liver microsomes; type: in vitro ADME; details: MLMs, prolonged incubation
in vitro = details: PAMPA, pH 7.4
5-HT6 [10] = tested on: 5-HT6; parameters: method as in Dupuis et al. (2008) [31]; details: Figure 8; ref Dupuis et al. (2008) [31]; cited from earlier work
D2 = molecular target: D2; parameters: method as in Dupuis et al. (2008) [31]; details: Figure 8; ref Dupuis et al. (2008) [31]; cited from earlier work
5-HT6 [11] = details: read-out: Ki 5-HT6; Figure 8; ref Dupuis et al. (2008) [31]; cited from earlier work

c1ccc2c(CCNCc3c[nH]c4ccccc34)c[nH]c2c1 [Compound 1, [2-(1H-indol-3-yl)ethyl][(1H-indol-3-yl)methyl]amine]
Kb (Human Serotonin 5-HT6R [1]): 151 nM
Ki (5-HT6R; Ki 5-HT6, Figure 8): 172 nM
Ki (5-HT6R; pKi 5-HT6, Table 1): 174 nM
Ki (5-HT7R): 28800 nM
Ki (5-HT2AR [2]; Ki 5-HT2A): 20 nM
Ki (5-HT2AR [2]; pKi 5-HT2A, Table 1): 20 nM
pKi D2 (D2R [3]; Table 1): 7.22
5-HT2AR function in words (5-HT2AR [4]): 5-HT2AR partial agonist
Ki (5-HT1AR): 1510 nM

Clc1ccc2c(CCNCc3c[nH]c4ccccc34)c[nH]c2c1 [Compound 5]
effect on CYP3A4 activity (CYP3A4): inducer of CYP3A4
Kb (Human Serotonin 5-HT6R [1]): 136 nM
HepG2 cell viability (HepG2 cell line): ~ 80 % of the control
effect on HepG2 proliferation in words (HepG2 cell line): slight antiproliferative effect
Kb (D2R [5]; antagonistic mode, 100 nM quinpirole, read-out: D2 Kb): 104 nM
EC50 (D2R [5]; read-out: EC50 (D2 receptor, antagonistic function)): 104 nM
Metabolic Pathway, metabolite M1 [6]: hydroxylation
Ki (5-HT7R): 15800 nM
EC50 (Human Serotonin 5-HT6R [7]): 157 nM
Ki (5-HT2AR [2]; Table 1, read-out: pKi 5-HT2A (converted)): 1170 nM
Ki (D2R [3]; Ki D2, Figure 8): 155 nM
Ki (D2R [3]; pKi D2, Table 1): 155 nM
permeability in words [8]: medium permeability coefficients
number of hydroxylated metabolites [9]: only one hydroxylated metabolite
Papp at 5 h, 200 µM (in vitro): 7.09 ± 1.24 ×10⁻⁶ cm/s
Ki (5-HT1AR): 3310 nM

O=C1Cc2cc(CCN3CCN(c4nsc5ccccc45)CC3)c(Cl)cc2N1 [Ziprasidone]
Kb (5-HT6 [10]): 57.5 nM
Ki (D2): 0.8 nM
Ki (5-HT6 [11]): 20 nM
